Laboratory results taken from patent publication US20240181022A1, “AMURINS LYSINS, AND LYSIN-ANTIMICROBIAL PEPTIDE (AMP) CONSTRUCTS ACTIVE AGAINST GRAM-NEGATIVE BACTERIA” (priority 2021, published 2024).
≈ marks a conversion by molar mass, not a printed value. Like-named read-outs stand apart in the source and are kept apart here. Where no end group is shown, it is not given here. [ ]: non-standard residue; d: D form.

Tests used:
M. fortuitum = test: MIC against M. fortuitum; format: cell-based, Mycobacterium fortuitum; details: M. fortuitum (ATCC 6841); CAAT media
A. xylosoxidans = test: Time-kill assay in cystic fibrosis patient sputum, A. xylosoxidans; format: cell-based, Achromobacter xylosoxidans
Description: (§1) Sputum from 5 cystic fibrosis patients was pooled. The resulting mixture was not filtered, as it was very dense and not amenable to sterilization by filtration. Sputum is known to be a complex mixture of DNA, carbohydrates, and lipids ([…], 2016). As used herein, the term “sputum” refers to the mucus present in the respiratory tract of an animal, such as a human. Sputum may increase in thickness due to the irritation or infection, including bacterial infection, and in some instances, may be expelled by the animal while coughing. In certain instances, cystic fibrosis may be characterized by the presence of a thick, sticky mucus or sputum present in the lungs of cystic fibrosis patients. The activity of GN370, AM1, AM2, AM3, and meropenem was determined in the sputum using a time-kill assay format as disclosed in Zhang et al., Antimicrobial peptide therapeutics for cystic fibrosis, Antimicrobial Agents Chemother. 2005; 49(7):2921-2927. […] Untreated controls were included in addition to pretreatment plating (t=0) for a baseline CFU determination. Activity was also determined in the absence of sputum for comparison to activity observed in the presence of sputum.

B. cenocepacia [1] = test: MIC by broth microdilution against B. cenocepacia; format: cell-based, Burkholderia cenocepacia; parameters: MIC Range: unit not given beside the values; details: B. cenocepacia isolates
Description: MIC values were determined using a modification of the standard broth microdilution reference method defined by the Clinical and Laboratory Standards Institute (CLSI), CLSL. 2015. Methods for Dilution Antimicrobial Susceptibility Tests for Bacteria That Grow Aerobically; Approved Standard-10th Edition. Clinical and Laboratory Standards Institute, Wayne, PA. The modification was based on the replacement of Mueller Hinton Broth with either CAA media (with and without NaCl) or CAA supplemented with 2.5% human serum. MIC is the minimum concentration of peptide sufficient to suppress at least 80% of the bacterial growth compared to control.
Based on these nine most prevalent strains, direct lytic agents, including GN370, AM1, AM2, and AM3, were evaluated against various isolates from each of the 9 strains. MICs and MBECs (Example 3) were determined, and a sputum inhibition test was conducted, as described below in Example 5.
The MICs for were determined as described below using the broth microdilution method for meropenem, GN370, AM1, AM2, and AM3. The results are shown below in Tables 8-12.

S. maltophilia [2] = details: for MIC: S. maltophilia test organism of the sputum time-kill assay
M. abscessus = test: MIC against MDR M. abscessus isolates; format: cell-based, Mycobacterium abscessus; details: 7 days, AST media (CAAT)
M. intracellulare = test: MIC against M. intracellulare; format: cell-based, Mycobacterium intracellulare; details: M. intracellulare (ATCC 13950); CAAT media
P. aeruginosa [3] = test: Serial passage resistance development study, P. aeruginosa; format: cell-based, Pseudomonas aeruginosa; details: P. aeruginosa strain CFS 1292, Day 28
Mycobacterium species = format: cell-based
M. tuberculosis = format: cell-based, Mycobacterium tuberculosis
M. avium = test: MIC against M. avium; format: cell-based, Mycobacterium avium; details: M. avium (ATCC 700898); CAAT media
S. maltophilia [4] = test: Time-kill assay in cystic fibrosis patient sputum, S. maltophilia; format: cell-based, Stenotrophomonas maltophilia
Description: as §1

B. cenocepacia [5] = format: cell-based, Burkholderia cenocepacia
Description: (§2) The MBEC (after 2-hour treatments) was determined as described in Jones and Wozniak, PsI Produced by Mucoid Pseudomonas aeruginosa Contributes to the Establishment of Biofilms and Immune Evasion, Am. Soc. Microbiol. 2017, 8(3):e00864-17. Meropenem and tobramycin were included as controls and were both poorly active, with MBEC90 values of >256 μg/mL (data not shown).

P. aeruginosa [6] = test: Time-kill assay in cystic fibrosis patient sputum, P. aeruginosa; format: cell-based, Pseudomonas aeruginosa
Description: as §1

A. ruhlandii = format: cell-based, Achromobacter ruhlandii
Description: as §2

M[dR]L[dK]MA[dR][dR][dR]Y[dR]LP[dR][dR][dR]S[dR][dR]LFS[dR]TAL[dR]MHP[dR]N[dR]L[dR][dR]IM[dR]GGI[dR]F [AM2]
MIC (M. fortuitum): 4 µg/mL
effect of sputum on antibacterial activity (A. xylosoxidans; 10% CF sputum vs no sputum): none of GN370, AM1, AM2, and AM3 was inhibited
Log10 CFU/mL of sputum (A. xylosoxidans; absence of sputum, 1 hr): 3.3 Log10 CFU/mL of sputum
Log10 CFU/mL of sputum (A. xylosoxidans; absence of sputum, 3 hr): 2.3 Log10 CFU/mL of sputum
Log10 CFU/mL of sputum (A. xylosoxidans; absence of sputum, 24 hr): 2.3 Log10 CFU/mL of sputum
Log10 CFU/mL of sputum (A. xylosoxidans; presence of 10% sputum, 1 hr): 2.3 Log10 CFU/mL of sputum
Log10 CFU/mL of sputum (A. xylosoxidans; presence of 10% sputum, 3 hr): 2.3 Log10 CFU/mL of sputum
Log10 CFU/mL of sputum (A. xylosoxidans; presence of 10% sputum, 24 hr): 2.3 Log10 CFU/mL of sputum
killing by 1 hour, maintained at 24 hours (A. xylosoxidans; time-kill): complete killing
MIC50 (B. cenocepacia [1]): > 128 µg/mL
MIC90 (B. cenocepacia [1]): > 128 µg/mL
MIC50 (S. maltophilia [2]; S. maltophilia isolates): 0.5 µg/mL
MIC90 (S. maltophilia [2]; S. maltophilia isolates): 1 µg/mL
MIC Range (S. maltophilia [2]; S. maltophilia isolates, in µg/mL): 0.03-2
MIC (S. maltophilia [2]): AM2 (MIC = 0.5)
activity (MIC) against S. maltophilia isolates (S. maltophilia [2]; all tested isolates, Tables 8-12): highly active
MIC (M. abscessus; M. abscessus strain BK51402): 2 µg/mL
MIC (M. abscessus; M. abscessus strain BK51403 (ATCC 19977)): 4 µg/mL
MIC (M. abscessus; M. abscessus strain BK51408): 8 µg/mL
MIC (M. abscessus; M. abscessus strain BK55096): 4 µg/mL
MIC (M. abscessus; M. abscessus strain BK55691): 1 µg/mL
MIC (M. abscessus; M. abscessus strain BK58156): 1 µg/mL
MIC (M. intracellulare): 0.5 µg/mL
change in MIC over serial passage (P. aeruginosa [3]): no significant changes
activity (MIC) against Mycobacterium species (Mycobacterium species): highest activity
MIC (M. tuberculosis; M. tuberculosis (ATCC 35817), (ADC, T) media): 8 µg/mL
MIC (M. tuberculosis; M. tuberculosis strain TN8109_LB (MDR), 7H9 broth, 20 days): 2 µg/mL
MIC (M. tuberculosis; M. tuberculosis strain TN8562_M33 (susc), 7H9 broth, 20 days): 2 µg/mL
MIC (M. tuberculosis; M. tuberculosis strain TN10525_LL (MDR), 7H9 broth, 20 days): 8 µg/mL
MIC (M. tuberculosis; M. tuberculosis strain TN10571_KY (MDR), 7H9 broth, 20 days): 4 µg/mL
MIC (M. tuberculosis; M. tuberculosis strain TN12657_KQ15 (IS), 7H9 broth, 20 days): 4 µg/mL
MIC (M. tuberculosis; M. tuberculosis strain TN13923_HD17 (susc), 7H9 broth, 20 days): 8 µg/mL
MIC (M. tuberculosis; M. tuberculosis strain TN18349_W738 (susc), 7H9 broth, 20 days): 2 µg/mL
MIC (M. tuberculosis; M. tuberculosis strain TN34503_001 (susc), 7H9 broth, 20 days): 8 µg/mL
MIC (M. avium): 1 Tg/mL
effect of sputum on antibacterial activity (S. maltophilia [4]; 10% CF sputum vs no sputum): none of GN370, AM1, AM2, and AM3 was inhibited
Log10 CFU/mL of sputum (S. maltophilia [4]; absence of sputum, 1 hr): 2.3 Log10 CFU/mL of sputum
Log10 CFU/mL of sputum (S. maltophilia [4]; absence of sputum, 3 hr): 2.3 Log10 CFU/mL of sputum
Log10 CFU/mL of sputum (S. maltophilia [4]; absence of sputum, 24 hr): 2.3 Log10 CFU/mL of sputum
Log10 CFU/mL of sputum (S. maltophilia [4]; presence of 10% sputum, 1 hr): 2.3 Log10 CFU/mL of sputum
Log10 CFU/mL of sputum (S. maltophilia [4]; presence of 10% sputum, 3 hr): 2.3 Log10 CFU/mL of sputum
Log10 CFU/mL of sputum (S. maltophilia [4]; presence of 10% sputum, 24 hr): 2.3 Log10 CFU/mL of sputum
killing by 1 hour, maintained at 24 hours (S. maltophilia [4]; time-kill): complete killing
MBEC50 (B. cenocepacia [5]): 16 µg/mL
MBEC90 (B. cenocepacia [5]): 32 µg/mL
MBEC Range (B. cenocepacia [5]): 2 to 32 µg/mL
effect of sputum on antibacterial activity (P. aeruginosa [6]; 10% CF sputum vs no sputum): not inhibited
Log10 CFU/mL of sputum (P. aeruginosa [6]; absence of sputum, 1 hr): 2.3 Log10 CFU/mL of sputum
Log10 CFU/mL of sputum (P. aeruginosa [6]; absence of sputum, 3 hr): 2.3 Log10 CFU/mL of sputum
Log10 CFU/mL of sputum (P. aeruginosa [6]; absence of sputum, 24 hr): 2.3 Log10 CFU/mL of sputum
Log10 CFU/mL of sputum (P. aeruginosa [6]; presence of 10% sputum, 1 hr): 2.3 Log10 CFU/mL of sputum
Log10 CFU/mL of sputum (P. aeruginosa [6]; presence of 10% sputum, 3 hr): 2.3 Log10 CFU/mL of sputum
Log10 CFU/mL of sputum (P. aeruginosa [6]; presence of 10% sputum, 24 hr): 2.3 Log10 CFU/mL of sputum
killing by 1 hour, maintained by 24 hours (P. aeruginosa [6]; time-kill): complete killing
MBEC50 (A. ruhlandii): 8 µg/mL
MBEC90 (A. ruhlandii): 32 µg/mL
MBEC Range (A. ruhlandii): 1 to 32 µg/mL

C[C@@H](O)[C@H]1C(=O)N2C(C(=O)O)=C(S[C@@H]3CN[C@H](C(=O)N(C)C)C3)[C@H](C)[C@H]12 [meropenem, reference compound]
activity in the presence and absence of sputum (A. xylosoxidans): poorly active
Log10 CFU/mL of sputum (A. xylosoxidans; absence of sputum, 1 hr): 4.9 Log10 CFU/mL of sputum
Log10 CFU/mL of sputum (A. xylosoxidans; absence of sputum, 3 hr): 5.3 Log10 CFU/mL of sputum
Log10 CFU/mL of sputum (A. xylosoxidans; absence of sputum, 24 hr): 7.3 Log10 CFU/mL of sputum
Log10 CFU/mL of sputum (A. xylosoxidans; presence of 10% sputum, 1 hr): 4.78 Log10 CFU/mL of sputum
Log10 CFU/mL of sputum (A. xylosoxidans; presence of 10% sputum, 3 hr): 4.3 Log10 CFU/mL of sputum
Log10 CFU/mL of sputum (A. xylosoxidans; presence of 10% sputum, 24 hr): 7.56 Log10 CFU/mL of sputum
MIC50 (B. cenocepacia [1]): 4 µg/mL (≈ 10.4 µM)
MIC90 (B. cenocepacia [1]): 8 µg/mL (≈ 20.9 µM)
MIC Range (B. cenocepacia [1]): 2-32
MIC50 (S. maltophilia [2]; S. maltophilia isolates): > 32 µg/mL
MIC90 (S. maltophilia [2]; S. maltophilia isolates): > 32 µg/mL
MIC (S. maltophilia [2]): Meropenem (MIC = 32)
activity in the presence and absence of sputum (S. maltophilia [4]): poorly active
Log10 CFU/mL of sputum (S. maltophilia [4]; absence of sputum, 1 hr): 5.04 Log10 CFU/mL of sputum
Log10 CFU/mL of sputum (S. maltophilia [4]; absence of sputum, 3 hr): 4.7 Log10 CFU/mL of sputum
Log10 CFU/mL of sputum (S. maltophilia [4]; absence of sputum, 24 hr): 7.95 Log10 CFU/mL of sputum
Log10 CFU/mL of sputum (S. maltophilia [4]; presence of 10% sputum, 1 hr): 3.78 Log10 CFU/mL of sputum
Log10 CFU/mL of sputum (S. maltophilia [4]; presence of 10% sputum, 3 hr): 4.26 Log10 CFU/mL of sputum
Log10 CFU/mL of sputum (S. maltophilia [4]; presence of 10% sputum, 24 hr): 6.3 Log10 CFU/mL of sputum
activity in the presence and absence of sputum (P. aeruginosa [6]): poorly active
Log10 CFU/mL of sputum (P. aeruginosa [6]; absence of sputum, 1 hr): 5.38 Log10 CFU/mL of sputum
Log10 CFU/mL of sputum (P. aeruginosa [6]; absence of sputum, 3 hr): 4.98 Log10 CFU/mL of sputum
Log10 CFU/mL of sputum (P. aeruginosa [6]; absence of sputum, 24 hr): 6.38 Log10 CFU/mL of sputum
Log10 CFU/mL of sputum (P. aeruginosa [6]; presence of 10% sputum, 1 hr): 5.26 Log10 CFU/mL of sputum
Log10 CFU/mL of sputum (P. aeruginosa [6]; presence of 10% sputum, 3 hr): 4.78 Log10 CFU/mL of sputum
Log10 CFU/mL of sputum (P. aeruginosa [6]; presence of 10% sputum, 24 hr): 6.6 Log10 CFU/mL of sputum
